# Reference: patent US20150283240A1, “STABILIZED COMPOSITIONS COMPRISING A […] ACTIVE AGENT AND AN OXIDIZING PRESERVATIVE” (Allergan, Inc., priority 2014, published 2015)
# Key:
# [1] = for Stabilization of chlorine dioxide (in words): excipients of Table 1 in brimonidine composition; for Stabilized Chlorine Dioxide Concentration, 0 Days / Stabilized Chlorine Dioxide Concentration, 7 Days / Stabilized Chlorine Dioxide Concentration, 14 Days: ingredient added at stated ppm to proprietary brimonidine composition
# Protocol: Each of the excipients was added, in the amounts shown, to a proprietary composition comprising brimonidine as a therapeutically active agent.
# [2] = Effect of citrate on bimatoprost and Purite stability in the composition of Table 4 at 50° C.; assay type: physicochemical; conditions: compositions D (citric acid 0.014%) vs E, 50° C., 3, 6 and 10 weeks, FIGS. 1 and 2
# Protocol: Compositions D and E were prepared according to Table 4 by a procedure similar to that described in Example 2. […] The samples were stored at 50° C. and the concentrations of bimatoprost (FIG. 1) and Purite® (FIG. 2) were determined at 3, 6 and 10 weeks.
# [3] = assay type: physicochemical
# Protocol: A composition, prepared according to Table 5, was entirely manufactured in a single batch vessel and was prepared as follows. The ingredients are added into purified water with mixing in the following order: sodium phosphate dibasic heptahydrate, citric acid monohydrate, sodium chloride, bimatoprost, and Purite®. Each ingredient was allowed to dissolve completely before the next ingredient was added. The pH was then measured and adjusted to 7.3, and purified water was added to bring the composition to final volume.
SMILES,Stabilization of chlorine dioxide (in words) [1],"Stabilized Chlorine Dioxide Concentration, 0 Days [1]","Stabilized Chlorine Dioxide Concentration, 7 Days [1]","Stabilized Chlorine Dioxide Concentration, 14 Days [1]",Effect of citrate on bimatoprost and Purite stability (in words) [2],Storage stability for bimatoprost and Purite (in words) [3]
O=C([O-])C(=O)[O-].[Na+].[Na+] [Sodium Oxalate],ineffective,39 ppm,38 ppm,35 ppm,–,–
O=C([O-])/C(O)=C(\O)C(=O)[O-].[Na+].[Na+] [Sodium Dihydroxyfurmarate],–,37 ppm,13 ppm,0 ppm,–,–
CC(O)C(=O)[O-].[Na+] (stereo not drawn) [Sodium Lactate],–,45 ppm,40 ppm,37 ppm,–,–
NCCN [Ethylene diamine],do not stabilize,–,–,–,–,–
O=C(O)CN(CCN(CC(=O)O)CC(=O)O)CC(=O)O [EDTA],do not stabilize,44 ppm,2 ppm,0 ppm,–,–
"O=C(O)CC(O)(CC(=O)O)C(=O)O [citrate, citric acid]",–,–,–,–,stabilizes both bimatoprost and Purite®,excellent storage stability
CC(=O)C(=O)[O-].[Na+] [Sodium Pyruvate],ineffective,–,–,–,–,–
O=C[O-].[Na+] [Sodium Formate],–,42 ppm,40 ppm,36 ppm,–,–
